Data on 19 compounds can be found in US9108944B2, “Androgen receptor modulators and uses thereof” (ARAGON PHARMACEUTICALS, INC., priority 2010, dated 2015).

Structures are written as SMILES. Where only a bound is given, the exact number is not on record here.

Experiment [1] deals with T1, AR-VP16 (Homo sapiens, UniProt P10275).
T1 sequence (P10275 560-920 limits assumed): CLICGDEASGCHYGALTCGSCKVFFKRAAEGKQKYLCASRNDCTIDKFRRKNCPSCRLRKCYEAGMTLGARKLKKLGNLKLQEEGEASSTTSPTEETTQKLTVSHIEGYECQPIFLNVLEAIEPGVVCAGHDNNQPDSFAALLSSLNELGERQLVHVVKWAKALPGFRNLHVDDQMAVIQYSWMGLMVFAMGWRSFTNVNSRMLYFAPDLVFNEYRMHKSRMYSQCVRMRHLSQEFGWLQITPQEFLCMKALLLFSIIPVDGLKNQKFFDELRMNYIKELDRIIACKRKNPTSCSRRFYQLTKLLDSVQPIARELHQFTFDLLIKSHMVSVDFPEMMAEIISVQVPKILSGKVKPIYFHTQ
Kind of experiment: AR-VP16 DNA Binding Assay, agonist mode (HepG2 cells). It is filed as cell-based. The note with it: Emax >20x DMSO control = agonist.

Experiment [2] addresses T1, AR-VP16. The experiment is described as follows: AR-VP16 DNA Binding Assay, antagonist mode (HepG2 cells, 0.1 nM R1881). Type of experiment: cell-based. Put shortly: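 Transfected HepG2 cells expressing AR-VP16 received serially diluted compound in charcoal-stripped-serum RPMI the day after transfection, with 0.1 nM R1881 (final) added only for antagonist testing. After 48 h, cells were lysed for measurement.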

Regarding `Cc1ccccc1N1C(=S)N(c2cnc(C#N)c(C(F)(F)F)c2)C(=O)C12CCC2` [Compound 20, 5-(8-Oxo-6-thioxo-5-(o-tolyl)-5,7-diazaspiro[3.4]octan-7-yl)-3-(trifluoromethyl)picolinonitrile], at AR-VP16 [1], the “ARVP16 DNA Binding Assay (Agonist mode): Agonist?” value (“ARVP16 DNA Binding Assay” below) is recorded as “No (Agonist defined as a compound whose Emax in the ARVP16 DNA Binding Assay (Agonist mode) is >20x DMSO control)”. On AR-VP16 [2], the IC50 was under 1 µM.
The matching figures for `CCOC(=O)c1cc(N2C(=S)N(c3cnc(C#N)c(C(F)(F)F)c3)C(=O)C23CCC3)ccc1F` [Compound 8, Ethyl 5-(7-(6-cyano-5-(trifluoromethyl)pyridin-3-yl)-8-oxo-6-thioxo-5,7-diazaspiro[3.4]octan-5-yl)-2-fluorobenzoate]: “No (Agonist defined as a compound whose Emax in the ARVP16 DNA Binding Assay (Agonist mode) is >20x DMSO control)” and over 1 µM.
The corresponding values for `N#Cc1ncc(N2C(=O)C3(CCC3)N(c3ccc(C(N)=O)c(F)c3)C2=S)cc1C(F)(F)F` [Compound 231, 4-(7-(6-Cyano-5-(trifluoromethyl)pyridin-3-yl)-8-oxo-6-thioxo-5,7-diazaspiro[3.4]octan-5-yl)-2-fluorobenzamide] are “No (Agonist defined as a compound whose Emax in the ARVP16 DNA Binding Assay (Agonist mode) is >20x DMSO control)” and under 1 µM.
On to `N#Cc1ncc(N2C(=O)C3(CCC3)N(c3ccc(OCCCN4CCOCC4)c(F)c3)C2=S)cc1C(F)(F)F` [Compound 150, 5-(5-(3-Fluoro-4-(3-morpholinopropoxy)phenyl)-8-oxo-6-thioxo-5,7-diazaspiro[3.4]octan-7-yl)-3-(trifluoromethyl)picolinonitrile], for which the “ARVP16 DNA Binding Assay” value on AR-VP16 [1] was “Yes (Agonist defined as a compound whose Emax in the ARVP16 DNA Binding Assay (Agonist mode) is >20x DMSO control)”. The compound also yielded an IC50 on AR-VP16 [2] of under 1 µM.
The matching figures for `N#Cc1ncc(N2C(=O)C3(CCC3)N(c3ccc(C(=O)Nc4ccccn4)c(F)c3)C2=S)cc1C(F)(F)F` [Compound 261, 4-(7-(6-Cyano-5-(trifluoromethyl)pyridin-3-yl)-8-oxo-6-thioxo-5,7-diazaspiro[3.4]octan-5-yl)-2-fluoro-N-(pyridin-2-yl)benzamide]: “No (Agonist defined as a compound whose Emax in the ARVP16 DNA Binding Assay (Agonist mode) is >20x DMSO control)” and under 1 µM.
The corresponding values for `CCOC(=O)c1ccc(N2C(=S)N(c3cnc(C#N)c(C(F)(F)F)c3)C(=O)C23CCC3)cc1F` [Compound 3, Ethyl 4-(7-(6-cyano-5-(trifluoromethyl)pyridin-3-yl)-8-oxo-6-thioxo-5,7-diazaspiro[3.4]octan-5-yl)-2-fluorobenzoate] are “No (Agonist defined as a compound whose Emax in the ARVP16 DNA Binding Assay (Agonist mode) is >20x DMSO control)” and over 1 µM.
The matching figures for `Cc1cc(N2C(=O)C3(CCC3)N(c3ccc(OC4CCS(=O)(=O)CC4)cc3)C2=S)cnc1C#N` [Compound 201, 5-(5-(4-((1,1-Dioxidotetrahydro-2H-thiopyran-4-yl)oxy)phenyl)-8-oxo-6-thioxo-5,7-diazaspiro[3.4]octan-7-yl)-3-methylpicolinonitrile]: “No (Agonist defined as a compound whose Emax in the ARVP16 DNA Binding Assay (Agonist mode) is >20x DMSO control)” and under 1 µM.
Consider `N#Cc1ncc(N2C(=O)C3(CCC3)N(c3ccccc3Oc3ccccc3)C2=S)cc1C(F)(F)F` [Compound 23, 5-(8-Oxo-5-(2-phenoxyphenyl)-6-thioxo-5,7-diazaspiro[3.4]octan-7-yl)-3-(trifluoromethyl)picolinonitrile], for which, on AR-VP16 [1], the “ARVP16 DNA Binding Assay” value is “No (Agonist defined as a compound whose Emax in the ARVP16 DNA Binding Assay (Agonist mode) is >20x DMSO control)”. Moreover, the half-inhibitory concentration (IC50) on AR-VP16 [2] was over 1 µM.
`Cc1cc(N2C(=O)C3(CCC3)N(c3ccc(C(=O)NCc4cccs4)c(F)c3)C2=S)cnc1C#N` [Compound 274, 4-(7-(6-Cyano-5-methylpyridin-3-yl)-8-oxo-6-thioxo-5,7-diazaspiro[3.4]octan-5-yl)-2-fluoro-N-(thiophen-2-ylmethyl)benzamide]: the “ARVP16 DNA Binding Assay” value on AR-VP16 [1] is “No (Agonist defined as a compound whose Emax in the ARVP16 DNA Binding Assay (Agonist mode) is >20x DMSO control)”. Moreover, on AR-VP16 [2], the IC50 was under 1 µM.
The corresponding values for `Cc1cc(N2C(=O)C3(CCC3)N(c3ccc4c(c3)CNC4=O)C2=S)cnc1C#N` [Compound 111, 3-Methyl-5-(8-oxo-5-(1-oxoisoindolin-5-yl)-6-thioxo-5,7-diazaspiro[3.4]octan-7-yl)picolinonitrile] are “No (Agonist defined as a compound whose Emax in the ARVP16 DNA Binding Assay (Agonist mode) is >20x DMSO control)” and over 1 µM.
In the case of `N#Cc1ncc(N2C(=O)C3(CCC3)N(c3ccc(C(=O)NCCCN4CCCC4=O)c(F)c3)C2=S)cc1C(F)(F)F` [Compound 308, 4-(7-(6-Cyano-5-(trifluoromethyl)pyridin-3-yl)-8-oxo-6-thioxo-5,7-diazaspiro[3.4]octan-5-yl)-2-fluoro-N-(3-(2-oxopyrrolidin-1-yl)propyl)benzamide], the “ARVP16 DNA Binding Assay” value on AR-VP16 [1] is listed as “No (Agonist defined as a compound whose Emax in the ARVP16 DNA Binding Assay (Agonist mode) is >20x DMSO control)”. On AR-VP16 [2], this compound had an IC50 of under 1 µM.
For the compound `N#Cc1ncc(N2C(=O)C3(CCC3)N(c3ccc(F)c(OCCc4cccnc4)c3)C2=S)cc1C(F)(F)F` [Compound 159, 5-(5-(4-Fluoro-3-(2-(pyridin-3-yl)ethoxy)phenyl)-8-oxo-6-thioxo-5,7-diazaspiro[3.4]octan-7-yl)-3-(trifluoromethyl)picolinonitrile], the “ARVP16 DNA Binding Assay” value on AR-VP16 [1] is “No (Agonist defined as a compound whose Emax in the ARVP16 DNA Binding Assay (Agonist mode) is >20x DMSO control)”. On AR-VP16 [2], the IC50 is over 1 µM.
The matching figures for `N#Cc1ncc(N2C(=O)C3(CCC3)N(c3ccc(C(=O)O)c(F)c3)C2=S)cc1C(F)(F)F` [Compound 224, 4-(7-(6-Cyano-5-(trifluoromethyl)pyridin-3-yl)-8-oxo-6-thioxo-5,7-diazaspiro[3.4]octan-5-yl)-2-fluorobenzoic acid]: “No (Agonist defined as a compound whose Emax in the ARVP16 DNA Binding Assay (Agonist mode) is >20x DMSO control)” and over 1 µM.
As to `N#Cc1ncc(N2C(=O)C3(CCC3)N(c3ccc(F)c(OCc4ccccc4)c3)C2=S)cc1C(F)(F)F` [Compound 161, 5-(5-(3-(Benzyloxy)-4-fluorophenyl)-8-oxo-6-thioxo-5,7-diazaspiro[3.4]octan-7-yl)-3-(trifluoromethyl)picolinonitrile], the “ARVP16 DNA Binding Assay” value on AR-VP16 [1] is “No (Agonist defined as a compound whose Emax in the ARVP16 DNA Binding Assay (Agonist mode) is >20x DMSO control)”. Also, the IC50 at AR-VP16 [2] is over 1 µM.
With `N#Cc1ncc(N2C(=O)C3(CCC3)N(c3cccc(-c4ccccc4)c3)C2=S)cc1C(F)(F)F` [Compound 14, 5-(5-([1,1′-Biphenyl]-3-yl)-8-oxo-6-thioxo-5,7-diazaspiro[3.4]octan-7-yl)-3-(trifluoromethyl)picolinonitrile], the “ARVP16 DNA Binding Assay” value at AR-VP16 [1] is recorded as “No (Agonist defined as a compound whose Emax in the ARVP16 DNA Binding Assay (Agonist mode) is >20x DMSO control)”. This compound also had an IC50 on AR-VP16 [2] of over 1 µM.
Regarding `N#Cc1ncc(N2C(=O)C3(CCC3)N(c3ccc(C(=O)NCCCN4CCC(F)(F)C4)c(F)c3)C2=S)cc1C(F)(F)F` [Compound 313, 4-(7-(6-Cyano-5-(trifluoromethyl)pyridin-3-yl)-8-oxo-6-thioxo-5,7-diazaspiro[3.4]octan-5-yl)-N-(3-(3,3-difluoropyrrolidin-1-yl)propyl)-2-fluorobenzamide], the “ARVP16 DNA Binding Assay” value on AR-VP16 [1] was “No (Agonist defined as a compound whose Emax in the ARVP16 DNA Binding Assay (Agonist mode) is >20x DMSO control)”. The same compound yielded an IC50 at AR-VP16 [2] of under 1 µM.
For the compound `N#Cc1ncc(N2C(=O)C3(CCC3)N(c3ccc(C(=O)NCCc4ccccc4)c(F)c3)C2=S)cc1C(F)(F)F` [Compound 257, 4-(7-(6-Cyano-5-(trifluoromethyl)pyridin-3-yl)-8-oxo-6-thioxo-5,7-diazaspiro[3.4]octan-5-yl)-2-fluoro-N-phenethylbenzamide], the “ARVP16 DNA Binding Assay” value at AR-VP16 [1] is recorded as “No (Agonist defined as a compound whose Emax in the ARVP16 DNA Binding Assay (Agonist mode) is >20x DMSO control)”. Moreover, the IC50 on AR-VP16 [2] is under 1 µM.
Consider `N#Cc1ncc(N2C(=O)C3(CCC3)N(c3ccc(OC4CCOCC4)cc3)C2=S)cc1C(F)(F)F` [Compound 198, 5-(8-Oxo-5-(4-((tetrahydro-2H-pyran-4-yl)oxy)phenyl)-6-thioxo-5,7-diazaspiro[3.4]octan-7-yl)-3-(trifluoromethyl)picolinonitrile], for which the “ARVP16 DNA Binding Assay” value on AR-VP16 [1] is “No (Agonist defined as a compound whose Emax in the ARVP16 DNA Binding Assay (Agonist mode) is >20x DMSO control)”. This compound also showed a 50% inhibitory concentration (IC50) at AR-VP16 [2] of under 1 µM.
The corresponding values for `N#Cc1ccc(N2C(=S)N(c3cnc(C#N)c(C(F)(F)F)c3)C(=O)C23CCC3)cc1` [Compound 12, 5-(5-(4-Cyanophenyl)-8-oxo-6-thioxo-5,7-diazaspiro[3.4]octan-7-yl)-3-(trifluoromethyl)picolinonitrile] are “No (Agonist defined as a compound whose Emax in the ARVP16 DNA Binding Assay (Agonist mode) is >20x DMSO control)” and under 1 µM.

Broadly, the IC50 is the concentration needed to halve the response being measured. A high value points to weaker potency.
